The values that follow come from PubChem BioAssay AID248 (DTP/NCI, 2004).

Structures are written as SMILES. Values joined by “and” are separate entries in the source; they are usually repeats but may differ in a detail not shown here. Equal entries are not always repeated. Toxic doses and inconclusive results are not listed.

This experiment deals with L1210 leukemia ip in BDF1 mice, survival T/C. Kind of experiment: NCI In Vivo Anticancer Drug Screen. Data for tumor model L1210 Leukemia (intraperitoneal) in B6D2F1 (BDF1) mice. Conditions: endpoint: mean survival time, higher = longer survival. The method in brief:
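Transplantable tumor model; survival measured in treated vs vehicle control mice. Value = treated/control.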

[1] abbreviates: dose: 100.0 mg/kg/injection, schedule: Q01DX001 (ip), vehicle: saline.
Setting [2] is: dose: 100.0 mg/kg/injection, schedule: Q01DX009 (ip), vehicle: Klucel (hydroxypropylcellulose) (HPC).
The mark [3] stands for this setting: dose: 200.0 mg/kg/injection, schedule: Q01DX009 (ip), vehicle: Klucel (hydroxypropylcellulose) (HPC).
[4] abbreviates: dose: 100.0 mg/kg/injection, schedule: Q04DX003 (ip), vehicle: Klucel (hydroxypropylcellulose) (HPC).
[5] abbreviates: dose: 200.0 mg/kg/injection, schedule: Q04DX003 (ip), vehicle: Klucel (hydroxypropylcellulose) (HPC).
The mark [6] stands for this setting: dose: 400.0 mg/kg/injection, schedule: Q04DX003 (ip), vehicle: Klucel (hydroxypropylcellulose) (HPC).
[7] abbreviates: dose: 400.0 mg/kg/injection, schedule: Q01DX009 (ip), vehicle: Klucel (hydroxypropylcellulose) (HPC).

`CC[n+]1cc(-c2ccc(NC(=O)/C=C\c3ccc(C(=O)Nc4ccc(-c5c[n+](CC)c(N)nc5N)cc4)cc3)cc2)c(N)nc1N`: the T/C is, setting by setting: (dose: 2.7 mg/kg/injection, schedule: Q01DX015 (ip), vehicle: saline) 156 % of control; (dose: 6.2 mg/kg/injection, schedule: Q01DX015 (ip), vehicle: saline) 153 % of control; (dose: 9.3 mg/kg/injection, schedule: Q01DX015 (ip), vehicle: saline) 152 % of control; (dose: 14.0 mg/kg/injection, schedule: Q01DX015 (ip), vehicle: saline) 201 % of control; (dose: 22.0 mg/kg/injection, schedule: Q01DX015 (ip), vehicle: saline) 207 % of control; (dose: 45.0 mg/kg/injection, schedule: Q01DX001 (ip), vehicle: saline) 101 % of control. Besides, the T/C runs as follows: (dose: 70.0 mg/kg/injection, schedule: Q01DX001 (ip), vehicle: saline) 188 % of control; under setting [1], 225 % of control and 248 % of control; (dose: 150.0 mg/kg/injection, schedule: Q01DX001 (ip), vehicle: saline) 107 % of control; (dose: 200.0 mg/kg/injection, schedule: Q01DX001 (ip), vehicle: saline) 105 % of control; (dose: 155.0 micrograms/kg/injection, schedule: Q01DX009 (ip), vehicle: saline) 121 % of control.

Take `Cc1ccc(OC/C=C/CSc2ccc(Br)cc2)cc1`: the T/C (dose: 50.0 mg/kg/injection, schedule: Q01DX009 (ip), vehicle: Klucel (hydroxypropylcellulose) (HPC)) is 103 % of control; the T/C (dose: 75.0 mg/kg/injection, schedule: Q01DX001 (ip), vehicle: Klucel (hydroxypropylcellulose) (HPC)) was 106 % of control; the T/C under setting [2] is 100 % of control; the T/C (dose: 150.0 mg/kg/injection, schedule: Q01DX001 (ip), vehicle: Klucel (hydroxypropylcellulose) (HPC)) is 104 % of control; the T/C under setting [3] was 102 % of control; the T/C (dose: 300.0 mg/kg/injection, schedule: Q01DX001 (ip), vehicle: Klucel (hydroxypropylcellulose) (HPC)) was 98 % of control.

As to `Cc1cccc2c1ccc1cc(C(C)C)ccc12`, the T/C by setting is: (dose: 75.0 mg/kg/injection, schedule: Q01DX009 (ip), vehicle: Klucel (hydroxypropylcellulose) (HPC)) 106 % of control; (dose: 150.0 mg/kg/injection, schedule: Q01DX009 (ip), vehicle: Klucel (hydroxypropylcellulose) (HPC)) 105 % of control; (dose: 300.0 mg/kg/injection, schedule: Q01DX009 (ip), vehicle: Klucel (hydroxypropylcellulose) (HPC)) 98 % of control.

In the case of `CC[N+]1(Cc2ccccc2)CC2(CCCCC2)ON2C1CC(C)C2(C)C` (centres undefined), the T/C (dose: 100.0 mg/kg/injection, schedule: Q04DX003 (ip), vehicle: saline with Tween-80) was 91 % of control.

For the molecule `CCOC(=O)C(=O)CC(=O)/C=C/c1ccccc1`, the T/C (dose: 100.0 mg/kg/injection, schedule: Q01DX009 (ip), vehicle: saline with Tween-80) was 96 % of control; the T/C under setting [4] is 101 % of control; the T/C (dose: 200.0 mg/kg/injection, schedule: Q01DX009 (ip), vehicle: saline with Tween-80) was 101 % of control; the T/C under setting [5] was 98 % of control; the T/C (dose: 400.0 mg/kg/injection, schedule: Q01DX009 (ip), vehicle: saline with Tween-80) was 98 % of control; the T/C under setting [6] was 101 % of control.

As to `Oc1ccc(-c2ccccc2)cc1CNC12CC3CC(CC(C3)C1)C2`, the T/C was 100 % of control under setting [2]; 90 % of control under setting [4]; 88 % of control under setting [3]; 100 % of control under setting [5]; 93 % of control under setting [7]; 94 % of control under setting [6].

For the molecule `CC1(C)C2CCC1(CS(=O)(=O)O)C(=O)C2.[Ag]` (centres undefined), the T/C runs as follows: (dose: 3.12 mg/kg/injection, schedule: Q01DX009 (ip), vehicle: saline with Tween-80) 92 % of control; (dose: 6.25 mg/kg/injection, schedule: Q01DX009 (ip), vehicle: saline with Tween-80) 87 % of control; (dose: 12.5 mg/kg/injection, schedule: Q01DX009 (ip), vehicle: saline with Tween-80) 90 % of control.

Regarding `CCC(C(=O)O)(c1ccccc1)c1ccccc1`, the T/C by setting is: (dose: 100.0 mg/kg/injection, schedule: Q04DX002 (ip), vehicle: gum acacia) 93 % of control; (dose: 200.0 mg/kg/injection, schedule: Q04DX002 (ip), vehicle: gum acacia) 111 % of control; (dose: 400.0 mg/kg/injection, schedule: Q04DX002 (ip), vehicle: gum acacia) 86 % of control.

`COc1ccc(N=CN(C)C)cc1`: the T/C (dose: 50.0 mg/kg/injection, schedule: Q01DX001 (ip), vehicle: saline) is 100 % of control and the T/C under setting [1] was 96 % of control.

Consider `NC(=O)/C=C\c1csc2ccccc12`, for which the T/C by setting is: (dose: 100.0 mg/kg/injection, schedule: Q01DX001 (ip), vehicle: carboxymethylcellulose (CMC)) 100 % of control; (dose: 200.0 mg/kg/injection, schedule: Q01DX001 (ip), vehicle: carboxymethylcellulose (CMC)) 94 % of control; (dose: 400.0 mg/kg/injection, schedule: Q01DX001 (ip), vehicle: carboxymethylcellulose (CMC)) 94 % of control.

For `N=C(N)SCc1ccccc1Cl`, the T/C by setting is: (dose: 3.13 mg/kg/injection, schedule: Q01DX009 (ip), vehicle: saline) 96 % of control; (dose: 3.13 mg/kg/injection, schedule: Q04DX002 (ip), vehicle: saline) 102 % of control; (dose: 6.25 mg/kg/injection, schedule: Q01DX009 (ip), vehicle: saline) 98 % of control; (dose: 6.25 mg/kg/injection, schedule: Q04DX002 (ip), vehicle: saline) 102 % of control; (dose: 12.5 mg/kg/injection, schedule: Q01DX009 (ip), vehicle: saline) 96 % of control; (dose: 12.5 mg/kg/injection, schedule: Q04DX002 (ip), vehicle: saline) 91 % of control. The T/C (dose: 25.0 mg/kg/injection, schedule: Q01DX009 (ip), vehicle: saline) is 96 % of control; the T/C (dose: 25.0 mg/kg/injection, schedule: Q04DX002 (ip), vehicle: saline) is 97 % of control and 98 % of control; the T/C (dose: 50.0 mg/kg/injection, schedule: Q04DX002 (ip), vehicle: saline) is 94 % of control.

On to `BrC(c1ccccc1)C(Br)c1ccccc1` (centres undefined), for which the T/C runs as follows: under setting [2], 86 % of control; under setting [4], 92 % of control; under setting [3], 96 % of control; under setting [5], 94 % of control; under setting [7], 91 % of control; under setting [6], 100 % of control.
